Assay results published in publication PMC5218480 (PLoS ONE, 2017).

Tested on: MV-4-11 cells
Test: Gene expression microarray analysis (Affymetrix PrimeView) and GSEA
Assay type: cell-based, human
Set-up: RFU PODN (11730768_x_at) / Fold change /veh PODN (11730768_x_at) / RFU LINC00158 (11744669_a_at) / Fold change /veh LINC00158 (11744669_a_at) / RFU DUSP10 (11751237_a_at) / Fold change /veh DUSP10 (11751237_a_at) / RFU ID3 (11757404_x_at) / Fold change /veh ID3 (11757404_x_at) / RFU PLEKHG5 (11737974_s_at) / Fold change /veh PLEKHG5 (11737974_s_at) / RFU LRRC4B (11730491_at) / Fold change /veh LRRC4B (11730491_at) / RFU GIMAP4 (11747438_a_at) / Fold change /veh GIMAP4 (11747438_a_at) / RFU KRT8 (11758183_x_at) / Fold change /veh KRT8 (11758183_x_at) / RFU CNN1 (11734310_a_at) / Fold change /veh CNN1 (11734310_a_at) / RFU VPS37D (11726825_at) / Fold change /veh VPS37D (11726825_at) / RFU C10orf10 (11716522_x_at) / Fold change /veh C10orf10 (11716522_x_at) / RFU KIR2DL2 /// KIR2DL4 /// KIR2DL5A /// KIR2DL5B /// KIR2DS1 /// KIR2DS2 /// KIR2DS3 /// KIR2DS4 /// KIR3DL3 /// KIR3DL3 /// KIR3DS1 (11738374_at) / Fold change /veh KIR2DL2 /// KIR2DL4 /// KIR2DL5A /// KIR2DL5B /// KIR2DS1 /// KIR2DS2 /// KIR2DS3 /// KIR2DS4 /// KIR3DL3 /// KIR3DL3 /// KIR3DS1 (11738374_at) / RFU C1QL1 (11718748_at) / Fold change /veh C1QL1 (11718748_at) / RFU TMPRSS4 (11747572_a_at) / Fold change /veh TMPRSS4 (11747572_a_at) / RFU HAMP (11756126_x_at) / Fold change /veh HAMP (11756126_x_at) / RFU RNFT2 (11725882_a_at) / Fold change /veh RNFT2 (11725882_a_at) / RFU NR4A2 (11747474_a_at) / Fold change /veh NR4A2 (11747474_a_at) / RFU ABCC12 (11746883_a_at) / Fold change /veh ABCC12 (11746883_a_at) / RFU TMEM136 (11760407_x_at) / Fold change /veh TMEM136 (11760407_x_at) / RFU CLDN22 /// WWC2 (11732394_at) / Fold change /veh CLDN22 /// WWC2 (11732394_at) / RFU HLA-DPB1 (11760878_x_at) / Fold change /veh HLA-DPB1 (11760878_x_at) / RFU SPINT1 (11716480_a_at) / Fold change /veh SPINT1 (11716480_a_at) / RFU GAP43 (11754022_s_at) / Fold change /veh GAP43 (11754022_s_at) / RFU A4GNT (11735810_at) / Fold change /veh A4GNT (11735810_at) / RFU PRB3 (11715151_x_at) / Fold change /veh PRB3 (11715151_x_at) / RFU TUBB4B (11761932_at) / Fold change /veh TUBB4B (11761932_at) / RFU CAPN14 (11732068_a_at) / Fold change /veh CAPN14 (11732068_a_at) / RFU TMCC2 (11721928_a_at) / Fold change /veh TMCC2 (11721928_a_at) / RFU IRGQ (11745062_a_at) / Fold change /veh IRGQ (11745062_a_at) / RFU FAM174B (11720279_a_at) / Fold change /veh FAM174B (11720279_a_at) / RFU TMPRSS4 (11748680_a_at) / Fold change /veh TMPRSS4 (11748680_a_at) / RFU FAM212B (11763350_a_at) / Fold change /veh FAM212B (11763350_a_at) / RFU PLEKHG5 (11743358_a_at) / Fold change /veh PLEKHG5 (11743358_a_at) / RFU ZSCAN30 (11745921_a_at) / Fold change /veh ZSCAN30 (11745921_a_at) / RFU CMKLR1 (11741424_a_at) / Fold change /veh CMKLR1 (11741424_a_at) / RFU LOC101060620 /// MAPK8IP1 (11723275_at) / Fold change /veh LOC101060620 /// MAPK8IP1 (11723275_at) / RFU SPTSSB (11747773_x_at) / Fold change /veh SPTSSB (11747773_x_at) / RFU PRSS12 (11739890_at) / Fold change /veh PRSS12 (11739890_at) / RFU BIN1 (11741810_x_at) / Fold change /veh BIN1 (11741810_x_at) / RFU WNT11 (11732464_a_at) / Fold change /veh WNT11 (11732464_a_at) / RFU C10orf10 (11716521_a_at) / Fold change /veh C10orf10 (11716521_a_at) / RFU C5orf56 (11738089_at) / Fold change /veh C5orf56 (11738089_at) / RFU CYB561 (11721691_x_at) / Fold change /veh CYB561 (11721691_x_at) / RFU ANKRD19P (11752326_a_at) / Fold change /veh ANKRD19P (11752326_a_at) / RFU OR2T12 /// OR2T33 /// OR2T8 (11738714_s_at) / Fold change /veh OR2T12 /// OR2T33 /// OR2T8 (11738714_s_at) / RFU VCAN (11748164_a_at) / Fold change /veh VCAN (11748164_a_at) / RFU JSRP1 (11732532_at) / Fold change /veh JSRP1 (11732532_at) / RFU KRTAP10-11 (11738290_x_at) / Fold change /veh KRTAP10-11 (11738290_x_at) / RFU MYO3A (11730013_a_at) / Fold change /veh MYO3A (11730013_a_at) / RFU EBF3 (11725865_a_at) / Fold change /veh EBF3 (11725865_a_at) / RFU CAMK2N1 (11719241_x_at) / Fold change /veh CAMK2N1 (11719241_x_at) / RFU C5orf56 (11738088_a_at) / Fold change /veh C5orf56 (11738088_a_at) / RFU OLFML3 (11715873_a_at) / Fold change /veh OLFML3 (11715873_a_at) / RFU LOC100653217 /// NTM (11731650_a_at) / Fold change /veh LOC100653217 /// NTM (11731650_a_at) / RFU MAPK11 (11762145_a_at) / Fold change /veh MAPK11 (11762145_a_at) / RFU FIZ1 (11724087_x_at) / Fold change /veh FIZ1 (11724087_x_at) / RFU OASL (11726364_x_at) / Fold change /veh OASL (11726364_x_at) / RFU SOX15 (11748057_x_at) / Fold change /veh SOX15 (11748057_x_at) / RFU CD79A (11719716_a_at) / Fold change /veh CD79A (11719716_a_at) / RFU HIST1H1D (11736915_at) / Fold change /veh HIST1H1D (11736915_at) / RFU CASKIN2 (11723855_a_at) / Fold change /veh CASKIN2 (11723855_a_at) / RFU LOC730098 (11760151_x_at) / Fold change /veh LOC730098 (11760151_x_at) / RFU OR4N2 (11742367_at) / Fold change /veh OR4N2 (11742367_at) / RFU PRRT2 (11749266_a_at) / Fold change /veh PRRT2 (11749266_a_at) / RFU SNX32 (11753110_a_at) / Fold change /veh SNX32 (11753110_a_at) / RFU CDHR5 (11726645_a_at) / Fold change /veh CDHR5 (11726645_a_at) / RFU RCAN1 (11760418_a_at) / Fold change /veh RCAN1 (11760418_a_at) / RFU FAM167A (11723789_a_at) / Fold change /veh FAM167A (11723789_a_at) / RFU FAM26E (11764081_at) / Fold change /veh FAM26E (11764081_at) / RFU ISYNA1 (11749810_s_at) / Fold change /veh ISYNA1 (11749810_s_at) / RFU ACY1 (11761880_at) / Fold change /veh ACY1 (11761880_at) / RFU 11764098_at / Fold change /veh 11764098_at / RFU SAMD14 (11745864_x_at) / Fold change /veh SAMD14 (11745864_x_at) / RFU NPB (11741838_a_at) / Fold change /veh NPB (11741838_a_at) / RFU TMPRSS6 (11731388_a_at) / Fold change /veh TMPRSS6 (11731388_a_at) / RFU KRTAP10-2 (11738614_at) / Fold change /veh KRTAP10-2 (11738614_at) / RFU ARHGAP8 /// PRR5-ARHGAP8 (11727945_x_at) / Fold change /veh ARHGAP8 /// PRR5-ARHGAP8 (11727945_x_at) / RFU KRTAP5-7 /// NADSYN1 (11734609_at) / Fold change /veh KRTAP5-7 /// NADSYN1 (11734609_at) / RFU RASL12 (11751679_a_at) / Fold change /veh RASL12 (11751679_a_at) / RFU CDKN2B (11736163_a_at) / Fold change /veh CDKN2B (11736163_a_at) / RFU PRF1 (11729649_at) / Fold change /veh PRF1 (11729649_at) / RFU, ZNF638 /// ZNF638-IT1 / Fold change vs veh, ZNF638 /// ZNF638-IT1 / RFU, PANK3 / Fold change vs veh, PANK3 / RFU, SH3YL1 / Fold change vs veh, SH3YL1 / RFU, ZEB2 / Fold change vs veh, ZEB2 / RFU, NRIP1 / Fold change vs veh, NRIP1 / RFU, PTTG1IP / Fold change vs veh, PTTG1IP / RFU, CAPN2 / Fold change vs veh, CAPN2 / RFU, MED14 / Fold change vs veh, MED14 / RFU, SNORA58 / Fold change vs veh, SNORA58 / RFU, C1orf63 / Fold change vs veh, C1orf63 / RFU, LRRFIP1 / Fold change vs veh, LRRFIP1 / RFU, NDUFAF7 / Fold change vs veh, NDUFAF7 / RFU, SLC12A2 / Fold change vs veh, SLC12A2 / RFU, IBTK / Fold change vs veh, IBTK / RFU, ESF1 / Fold change vs veh, ESF1 / Fold change vs veh, TMEM50B / RFU, TAOK1 / Fold change vs veh, TAOK1 / RFU, ACBD3 / Fold change vs veh, ACBD3 / RFU, TMA16 / Fold change vs veh, TMA16 / RFU, RWDD3 / Fold change vs veh, RWDD3 / RFU, BCAT1 / Fold change vs veh, BCAT1 / RFU, EDEM3 / Fold change vs veh, EDEM3 / RFU, TMEM33 / Fold change vs veh, TMEM33 / RFU, WDR75 / Fold change vs veh, WDR75 / RFU, AHCTF1 / Fold change vs veh, AHCTF1 / RFU, TFRC / Fold change vs veh, TFRC / RFU, ZDHHC17 / Fold change vs veh, ZDHHC17 / RFU, NOM1 / Fold change vs veh, NOM1 / RFU, ARL8B / Fold change vs veh, ARL8B / RFU, ZBTB11 / Fold change vs veh, ZBTB11 / RFU, TAMM41 / Fold change vs veh, TAMM41 / RFU, KIAA1704 /// LOC100996395 / Fold change vs veh, KIAA1704 /// LOC100996395 / RFU, ING1 / Fold change vs veh, ING1 / RFU, TRMT61B / Fold change vs veh, TRMT61B / RFU, FUBP3 / Fold change vs veh, FUBP3 / RFU, TP53 / Fold change vs veh, TP53 / RFU, TNKS2 / Fold change vs veh, TNKS2 / RFU, ZFP14 / Fold change vs veh, ZFP14 / RFU, ACTR2 / Fold change vs veh, ACTR2 / RFU, PPP3R1 / Fold change vs veh, PPP3R1 / RFU, PIK3R1 / Fold change vs veh, PIK3R1 / RFU, HNRNPA1 / Fold change vs veh, HNRNPA1 / RFU, RNF170 / Fold change vs veh, RNF170 / RFU, ZNF28 / Fold change vs veh, ZNF28 / RFU, RNGTT / Fold change vs veh, RNGTT / RFU, OGT / Fold change vs veh, OGT / RFU, BRD1 / Fold change vs veh, BRD1 / RFU, MARS / Fold change vs veh, MARS / RFU, ZNF655 / Fold change vs veh, ZNF655 / RFU, FAHD1 / Fold change vs veh, FAHD1 / RFU, BDP1 / Fold change vs veh, BDP1 / RFU, LRRCC1 / Fold change vs veh, LRRCC1 / RFU, ARID1A / Fold change vs veh, ARID1A / RFU, ZNF146 / Fold change vs veh, ZNF146 / RFU, ZNF330 / Fold change vs veh, ZNF330 / RFU, GPN3 / Fold change vs veh, GPN3 / RFU, C9orf123 / Fold change vs veh, C9orf123 / RFU, N4BP2L2 / Fold change vs veh, N4BP2L2 / RFU, ARFIP1 / Fold change vs veh, ARFIP1 / RFU, FAM179B / Fold change vs veh, FAM179B / RFU, BCL10 / Fold change vs veh, BCL10 / RFU, UHRF1BP1L / Fold change vs veh, UHRF1BP1L / RFU, BET1 / Fold change vs veh, BET1 / RFU, CNOT2 / Fold change vs veh, CNOT2 / RFU, ZNF268 / Fold change vs veh, ZNF268 / Fold change vs veh, ZNF507 / RFU, DGCR2 / Fold change vs veh, DGCR2 / RFU, WDSUB1 / Fold change vs veh, WDSUB1 / Fold change vs veh, HSP90B1 /// MIR3652 / RFU, ADSS / Fold change vs veh, ADSS / RFU, GK / Fold change vs veh, GK / RFU, ZNF148 / Fold change vs veh, ZNF148 / RFU, TAF9 / Fold change vs veh, TAF9 / RFU, SLC1A5 / Fold change vs veh, SLC1A5 / RFU, SLMO2 / Fold change vs veh, SLMO2 / RFU, ABCC4 / Fold change vs veh, ABCC4 / RFU, LOC101060439 /// RAP1B / Fold change vs veh, LOC101060439 /// RAP1B / RFU, RFX7 / Fold change vs veh, RFX7 / RFU, GTPBP10 / Fold change vs veh, GTPBP10 / RFU, CNEP1R1 / Fold change vs veh, CNEP1R1 / RFU, BIVM-ERCC5 /// ERCC5 / Fold change vs veh, BIVM-ERCC5 /// ERCC5 / RFU, ILF3 / Fold change vs veh, ILF3 / RFU 11762660_at / Fold change /veh 11762660_at / RFU VCAN (11757783_s_at) / Fold change /veh VCAN (11757783_s_at) / RFU DDX43 (11728927_at) / Fold change /veh DDX43 (11728927_at) / RFU KRT8 (11758188_x_at) / Fold change /veh KRT8 (11758188_x_at) / RFU NKD1 (11759106_at) / Fold change /veh NKD1 (11759106_at) / RFU SRD5A1 (11742802_a_at) / Fold change /veh SRD5A1 (11742802_a_at) / RFU TPSAB1 /// TPSB2 (11721975_s_at) / Fold change /veh TPSAB1 /// TPSB2 (11721975_s_at) / RFU GSTM3 (11746129_a_at) / Fold change /veh GSTM3 (11746129_a_at) / RFU IL23R (11737362_x_at) / Fold change /veh IL23R (11737362_x_at) / RFU TMEM51 (11727254_a_at) / Fold change /veh TMEM51 (11727254_a_at) / RFU PIWIL2 (11732686_x_at) / Fold change /veh PIWIL2 (11732686_x_at) / RFU ORM1 (11744905_x_at) / Fold change /veh ORM1 (11744905_x_at) / RFU CCDC152 (11743942_at) / Fold change /veh CCDC152 (11743942_at) / RFU ECM1 (11717891_a_at) / Fold change /veh ECM1 (11717891_a_at) / RFU IL23R (11748794_a_at) / Fold change /veh IL23R (11748794_a_at) / RFU TNFAIP8L3 (11732012_x_at) / Fold change /veh TNFAIP8L3 (11732012_x_at) / RFU MBOAT4 (11741988_at) / Fold change /veh MBOAT4 (11741988_at) / RFU 11764193_at / Fold change /veh 11764193_at / RFU TMEM53 (11763286_at) / Fold change /veh TMEM53 (11763286_at) / RFU MAGEB2 (11727129_at) / Fold change /veh MAGEB2 (11727129_at) / RFU TMEM200A (11744735_a_at) / Fold change /veh TMEM200A (11744735_a_at) / RFU CCDC152 (11751479_a_at) / Fold change /veh CCDC152 (11751479_a_at) / RFU FAM211A (11726209_a_at) / Fold change /veh FAM211A (11726209_a_at) / RFU RGS16 (11746705_a_at) / Fold change /veh RGS16 (11746705_a_at) / RFU VCAN (11755009_s_at) / Fold change /veh VCAN (11755009_s_at) / RFU RHOB (11743442_s_at) / Fold change /veh RHOB (11743442_s_at) / RFU RGS16 (11720943_a_at) / Fold change /veh RGS16 (11720943_a_at) / RFU RGS16 (11720944_at) / Fold change /veh RGS16 (11720944_at) / RFU, VPS4B / Fold change vs veh, VPS4B / RFU, CREB1 / Fold change vs veh, CREB1 / RFU, DNAJC13 / Fold change vs veh, DNAJC13 / RFU, GNAQ / Fold change vs veh, GNAQ / RFU, CDK5R1 / Fold change vs veh, CDK5R1 / RFU, ZRANB3 / Fold change vs veh, ZRANB3 / RFU, CUL4A / Fold change vs veh, CUL4A / RFU, CCNY / Fold change vs veh, CCNY / RFU, UFL1 / Fold change vs veh, UFL1 / RFU, COG3 / Fold change vs veh, COG3 / RFU, DIAPH2 / Fold change vs veh, DIAPH2 / RFU, SKA2 / Fold change vs veh, SKA2 / RFU, AFF3 / Fold change vs veh, AFF3 / RFU, LMF1 / Fold change vs veh, LMF1 / RFU, IPO11 / Fold change vs veh, IPO11 / RFU, DFFB / Fold change vs veh, DFFB / RFU, FOXP1 / Fold change vs veh, FOXP1 / RFU, CARD8 / Fold change vs veh, CARD8 / RFU, STRN3 / Fold change vs veh, STRN3 / RFU, ADK / Fold change vs veh, ADK / RFU, RASSF2 / Fold change vs veh, RASSF2 / RFU, WIPF1 / Fold change vs veh, WIPF1 / RFU, LARP1B / Fold change vs veh, LARP1B / RFU, RASA1 / Fold change vs veh, RASA1 / RFU, RB1 / Fold change vs veh, RB1 / RFU, PPFIA1 / Fold change vs veh, PPFIA1 / RFU, MAT2A / Fold change vs veh, MAT2A / RFU, CCT5 / Fold change vs veh, CCT5 / RFU, WDR92 / Fold change vs veh, WDR92 / RFU, CUX1 / Fold change vs veh, CUX1 / RFU, TTC7A / Fold change vs veh, TTC7A / RFU, TMEM135 / Fold change vs veh, TMEM135 / RFU, DEPTOR / Fold change vs veh, DEPTOR / RFU, CPM / Fold change vs veh, CPM / RFU, DNAJB6 / Fold change vs veh, DNAJB6 / RFU, CACNA2D3 / Fold change vs veh, CACNA2D3 / RFU, DTX4 / Fold change vs veh, DTX4 / RFU, TFCP2 / Fold change vs veh, TFCP2 / RFU, GMCL1 /// GMCL1P1 / Fold change vs veh, GMCL1 /// GMCL1P1 / RFU, AEBP2 / Fold change vs veh, AEBP2 / RFU, SNHG1 /// SNORD22 /// SNORD25 /// SNORD26 /// SNORD27 /// SNORD28 /// SNORD29 /// SNORD31 / Fold change vs veh, SNHG1 /// SNORD22 /// SNORD25 /// SNORD26 /// SNORD27 /// SNORD28 /// SNORD29 /// SNORD31 / Fold change (Aza/veh), C12orf56 (ProbeSet 11735607_a_at) / Fold change (ACY-1035/veh), C12orf56 (ProbeSet 11735607_a_at) / Fold change (Aza/veh), FGFR1OP (ProbeSet 11751329_s_at) / Fold change (ACY-1035/veh), FGFR1OP (ProbeSet 11751329_s_at) / Fold change (Aza/veh), VPS36 (ProbeSet 11739960_a_at) / Fold change (ACY-1035/veh), VPS36 (ProbeSet 11739960_a_at) / RFU SYPL1 (11715823_x_at) / Fold change /veh SYPL1 (11715823_x_at) / RFU IGFBP7 (11715501_s_at) / Fold change /veh IGFBP7 (11715501_s_at) / RFU REEP3 (11722064_at) / Fold change /veh REEP3 (11722064_at) / RFU IGLL1 (11728026_x_at) / Fold change /veh IGLL1 (11728026_x_at): dose or concentration left out as unconfirmed
Settings: ProbeSet 11743929_at; LIST B

Nc1ccc(-c2cccs2)cc1NC(=O)c1ccc2c(c1)cc(C1CC1)n2CCN1CCOCC1 [ACY-1035]
Fold change vs veh, UHRF1BP1L: 0.90
